Experimental data taken from article PMC7785020, “A unique hormonal recognition feature of the human glucagon-like peptide-2 receptor” (Cell Research, 2020).
Substitutions are numbered along the chain they refer to.

Legend:
[1] = target: T1, GLP-2R K414^7.35A (Homo sapiens, UniProt O95838, K414A); test: radioligand competition binding, K414^7.35A; set-up: WT (1–553); expressed in transfected cells; host or cells: COS-7; settings: COS-7, K414^7.35 A; [^125I]GLP-2(1–33, M10Y) 10–15 pM, 4 h, 4 °C; mean ± SEM, n ≥ 3 in duplicate
T1 sequence (O95838 1-553 K414A): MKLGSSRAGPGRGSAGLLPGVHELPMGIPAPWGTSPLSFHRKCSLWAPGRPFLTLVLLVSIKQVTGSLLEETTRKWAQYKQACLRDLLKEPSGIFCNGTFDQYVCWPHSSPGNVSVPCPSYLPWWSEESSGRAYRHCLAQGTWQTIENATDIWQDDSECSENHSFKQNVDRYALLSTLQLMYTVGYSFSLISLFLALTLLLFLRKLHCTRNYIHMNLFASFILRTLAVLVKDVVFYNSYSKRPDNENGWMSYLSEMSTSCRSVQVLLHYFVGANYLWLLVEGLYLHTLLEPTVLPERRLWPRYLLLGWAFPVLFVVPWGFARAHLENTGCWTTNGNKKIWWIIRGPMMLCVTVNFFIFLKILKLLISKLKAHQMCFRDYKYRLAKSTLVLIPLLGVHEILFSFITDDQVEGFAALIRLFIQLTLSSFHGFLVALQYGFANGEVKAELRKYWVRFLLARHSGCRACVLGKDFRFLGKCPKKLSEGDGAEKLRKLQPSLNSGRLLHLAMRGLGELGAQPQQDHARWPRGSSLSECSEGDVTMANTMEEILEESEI
Procedure: (§1) A stepwise oxidation reaction was performed by addition of 6 aliquots of 5 µL ChloramineT (30 µL/mL) with a 1-min interval during constant stirring. The reaction was terminated by the addition of 400 µL phase A (0.1% trifluoracetic acid) before being fractionated into 1 mL volume by reverse-phase high-performance liquid chromatography (RP-HPLC, Waters 600 SimiPrep system) on a C18 column. The iodinated protein was […] by increasing concentrations of phase B (Acetonitrile + 0.1% TFA) and tested for competitive binding ability.
(§2) One day before transfection, the COS-7 cells were seeded in 75 cm^2 culture flasks (3 million cells/flask) in DMEM, containing 3.9 g/L NaHCO3 and supplemented with 10% FBS, 1% L-glutamine, 180 units/mL penicillin and 45 µg/mL streptomycin. After an overnight culture at 37 °C, 10% CO2 and 95% air humidity, the cells were transiently transfected with different GLP-2R constructs or pcDNA3.1 vector as previously described.[52] Following 24-h incubation, the cells were transferred to Costa® microtiter plates (150,000 cells/well, PerkinElmer) to achieve a 5%–10% specific binding. […] The cells were then washed twice in binding buffer (4 °C), lysed and counted for radioactivity using a Wallac Gamma Counter (PerkinElmer).

[2] = target: T2, GLP-2R K231^2.67A (Homo sapiens, UniProt O95838, K231A); test: radioligand competition binding, K231^2.67A; set-up: WT (1–553); expressed in transfected cells; settings: COS-7, K231^2.67A; [^125I]GLP-2(1–33, M10Y) 10–15 pM, 4 h, 4 °C; n ≥ 3 in duplicate
T2 sequence (O95838 1-553 K231A): T1 sequence (O95838 1-553 K414A) with K231A, A414K
Procedure: as §1, §2

[3] = target: T3, GLP-2R R344^5.40A (Homo sapiens, UniProt O95838, R344A); test: radioligand competition binding, R344^5.40A; set-up: WT (1–553); expressed in transfected cells; host or cells: COS-7; settings: COS-7, R344^5.40A; [^125I]GLP-2(1–33, M10Y) 10–15 pM, 4 h, 4 °C; mean ± SEM, n ≥ 3 in duplicate
T3 sequence (O95838 1-553 R344A): T1 sequence (O95838 1-553 K414A) with R344A, A414K
Procedure: as §1, §2

Row | SMILES | % Binding of WT [1] [%] | % Binding of WT [2] | % Binding of WT [3] [%]
1 | CC[C@H](C)[C@H](NC(=O)[C@H](Cc1ccccc1)NC(=O)[C@H](CC(=O)O)NC(=O)[C@H](CCCNC(=N)N)NC(=O)[C@H](C)NC(=O)[C@H](C)NC(=O)[C@H](CC(C)C)NC(=O)[C@H](CC(N)=O)NC(=O)[C@H](CC(=O)O)NC(=O)[C@H](CC(C)C)NC(=O)[C@@H](NC(=O)[C@@H](NC(=O)[C@H](CC(N)=O)NC(=O)[C@H](CCSC)NC(=O)[C@H](CCC(=O)O)NC(=O)[C@H](CC(=O)O)NC(=O)[C@H](CO)NC(=O)[C@H](Cc1ccccc1)NC(=O)[C@H](CO)NC(=O)CNC(=O)[C@H](CC(=O)O)NC(=O)[C@H](C)NC(=O)[C@@H](N)Cc1c[nH]cn1)[C@@H](C)O)[C@@H](C)CC)C(=O)N[C@@H](CC(N)=O)C(=O)N[C@@H](Cc1c[nH]c2ccccc12)C(=O)N[C@@H](CC(C)C)C(=O)N[C@H](C(=O)N[C@@H](CCC(N)=O)C(=O)N[C@H](C(=O)N[C@@H](CCCCN)C(=O)N[C@H](C(=O)N[C@H](C(=O)N[C@@H](CC(=O)O)C(=O)O)[C@@H](C)O)[C@@H](C)CC)[C@@H](C)O)[C@@H](C)CC [Human GLP-2 (1–33)] | 15.2 ± 1.0 | N.B. | 5.0 ± 0.8
2 | CC[C@H](C)[C@H](NC(=O)[C@H](Cc1ccccc1)NC(=O)[C@H](CC(=O)O)NC(=O)[C@H](CCCNC(=N)N)NC(=O)[C@H](C)NC(=O)[C@H](C)NC(=O)[C@H](CC(C)C)NC(=O)[C@H](CC(N)=O)NC(=O)[C@H](CC(=O)O)NC(=O)[C@H](CC(C)C)NC(=O)[C@@H](NC(=O)[C@@H](NC(=O)[C@H](CC(N)=O)NC(=O)[C@H](CCSC)NC(=O)[C@H](CCC(=O)O)NC(=O)[C@H](CC(=O)O)NC(=O)[C@H](CO)NC(=O)[C@H](Cc1ccccc1)NC(=O)[C@H](CO)NC(=O)CNC(=O)[C@H](CC(=O)O)NC(=O)CNC(=O)[C@@H](N)Cc1c[nH]cn1)[C@@H](C)O)[C@@H](C)CC)C(=O)N[C@@H](CC(N)=O)C(=O)N[C@@H](Cc1c[nH]c2ccccc12)C(=O)N[C@@H](CC(C)C)C(=O)N[C@H](C(=O)N[C@@H](CCC(N)=O)C(=O)N[C@H](C(=O)N[C@@H](CCCCN)C(=O)N[C@H](C(=O)N[C@H](C(=O)N[C@@H](CC(=O)O)C(=O)O)[C@@H](C)O)[C@@H](C)CC)[C@@H](C)O)[C@@H](C)CC [Teduglutide] | 13.9 ± 0.8 | N.B. | 3.5 ± 0.8
